Laboratory results from patent publication US20240398811A1, “PRC2 INHIBITORS FOR USE IN TREATING BLOOD DISORDERS” (ORIC Pharmaceuticals, Inc., priority 2021, published 2024).

Target: purified human, His-tagged PRC2 complex (Homo sapiens (Human), UniProt O75530)
Assay: Hot Spot HMT assay, inhibition of PRC2 enzymatic activity
Assay type: biochemical
Conditions: 10 nM PRC2 complex, 1 μM 3H-SAM, core histone H3, 10-point dose-response
Source text: The assay uses purified human, His-tagged PRC2 complex, including N-terminal His-tagged EZH2 enzyme, N-terminal Flag-tagged embryonic ectoderm development protein (EED), N-terminal His-tagged suppressor of zeste 12 (SUZ12), N-terminal His-tagged AEBP2, and N-terminal His-tagged RbAp48. In this assay, the transfer of the tritiated methyl group from radiolabeled S-adenosyl methionine (SAM) to purified core histone protein by EZH2 is quantitated after filtration to determine the activity of the core PRC2 complex in the presence and absence of compound.
The initial starting concentration for the serial dilutions of each compound was 1.0 μM. […] SAH (S-(5-adenosyl)-L-homocysteine) was used as a positive control for assay validation.
An aliquot of each serial dilution of test compound was added to deep 384 well plate using Acoustic Technology instrument (Echo 550, LabCyte) containing reaction buffer (50 mM Tris-HCl (pH 8.)), 0.01% Brij35, 1 mM EDTA, 1 mM DTT, 1 mM PMSF and 1% DMSO), 10 nM purified PRC2 complex and 0.05 mg/ml core histone H3 in a 5 μl volume. The reaction was mixed gently and then pre-incubated for 20 min at 30° C. The enzymatic reaction was initiated by adding 1 μM S-Adenosyl-L-[methyl-^3H]methionine and incubated for 1 hr at 30° C. After 1 hr, the reaction product was detected using a filter binding method and the amount of tritiated H3 core histone was quantitated using a scintillation counter. […] Key: A=<100 nM; B=>100 nM-<500 nM; and C=>500 nM.

Sequence of purified human, His-tagged PRC2 complex (O75530 whole entry): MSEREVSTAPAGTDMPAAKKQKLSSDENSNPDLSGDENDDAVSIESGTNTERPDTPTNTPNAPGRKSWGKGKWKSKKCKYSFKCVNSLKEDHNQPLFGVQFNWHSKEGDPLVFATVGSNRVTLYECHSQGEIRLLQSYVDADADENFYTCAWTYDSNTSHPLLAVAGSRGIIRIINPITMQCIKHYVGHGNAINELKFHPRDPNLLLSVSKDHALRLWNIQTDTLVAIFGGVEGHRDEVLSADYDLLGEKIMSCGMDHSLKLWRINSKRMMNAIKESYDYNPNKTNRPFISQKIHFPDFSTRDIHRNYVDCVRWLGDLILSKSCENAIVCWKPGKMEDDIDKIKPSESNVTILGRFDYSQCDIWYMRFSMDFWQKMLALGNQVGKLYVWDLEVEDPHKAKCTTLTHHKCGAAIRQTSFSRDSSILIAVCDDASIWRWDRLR
Sequence of purified human, His-tagged PRC2 complex (Q15910 whole entry partner): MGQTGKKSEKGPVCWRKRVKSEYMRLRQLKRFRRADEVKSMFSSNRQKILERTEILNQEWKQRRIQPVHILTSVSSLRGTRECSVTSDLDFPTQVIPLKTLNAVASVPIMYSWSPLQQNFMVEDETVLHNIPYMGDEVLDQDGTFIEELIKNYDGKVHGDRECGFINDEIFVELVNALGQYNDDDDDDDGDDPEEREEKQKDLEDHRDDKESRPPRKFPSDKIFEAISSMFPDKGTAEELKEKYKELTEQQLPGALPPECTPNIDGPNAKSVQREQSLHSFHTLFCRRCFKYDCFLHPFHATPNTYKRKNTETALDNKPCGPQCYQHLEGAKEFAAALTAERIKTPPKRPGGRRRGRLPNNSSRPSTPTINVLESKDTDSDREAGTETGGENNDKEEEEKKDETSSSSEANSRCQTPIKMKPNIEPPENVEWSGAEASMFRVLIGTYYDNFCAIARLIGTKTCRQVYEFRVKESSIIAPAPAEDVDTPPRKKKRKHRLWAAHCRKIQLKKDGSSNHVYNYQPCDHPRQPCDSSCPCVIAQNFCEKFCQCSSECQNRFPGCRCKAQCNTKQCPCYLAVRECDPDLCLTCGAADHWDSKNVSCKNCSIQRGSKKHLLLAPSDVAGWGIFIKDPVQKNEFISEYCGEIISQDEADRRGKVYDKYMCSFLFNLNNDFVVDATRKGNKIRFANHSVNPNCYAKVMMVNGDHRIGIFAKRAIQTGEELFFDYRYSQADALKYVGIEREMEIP
Sequence of purified human, His-tagged PRC2 complex (Q15022 whole entry partner): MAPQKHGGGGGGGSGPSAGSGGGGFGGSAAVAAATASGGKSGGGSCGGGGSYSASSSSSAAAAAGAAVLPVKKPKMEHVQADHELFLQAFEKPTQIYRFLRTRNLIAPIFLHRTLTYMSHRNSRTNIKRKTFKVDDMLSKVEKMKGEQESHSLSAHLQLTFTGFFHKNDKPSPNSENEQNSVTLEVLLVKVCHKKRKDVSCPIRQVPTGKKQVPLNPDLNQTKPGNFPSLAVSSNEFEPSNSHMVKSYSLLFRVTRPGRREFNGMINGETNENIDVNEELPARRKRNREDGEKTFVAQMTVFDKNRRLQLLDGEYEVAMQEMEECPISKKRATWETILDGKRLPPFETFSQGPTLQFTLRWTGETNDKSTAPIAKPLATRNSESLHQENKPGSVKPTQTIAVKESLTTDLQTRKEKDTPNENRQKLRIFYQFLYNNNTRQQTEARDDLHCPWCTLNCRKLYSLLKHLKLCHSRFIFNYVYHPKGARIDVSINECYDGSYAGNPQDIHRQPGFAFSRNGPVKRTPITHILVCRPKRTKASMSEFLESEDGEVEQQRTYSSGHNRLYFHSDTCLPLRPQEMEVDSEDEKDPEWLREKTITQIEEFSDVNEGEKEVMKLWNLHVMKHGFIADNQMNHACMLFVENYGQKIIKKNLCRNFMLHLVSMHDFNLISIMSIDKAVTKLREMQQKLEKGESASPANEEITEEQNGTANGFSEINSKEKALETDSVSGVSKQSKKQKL
Sequence of purified human, His-tagged PRC2 complex (Q6ZN18 whole entry partner): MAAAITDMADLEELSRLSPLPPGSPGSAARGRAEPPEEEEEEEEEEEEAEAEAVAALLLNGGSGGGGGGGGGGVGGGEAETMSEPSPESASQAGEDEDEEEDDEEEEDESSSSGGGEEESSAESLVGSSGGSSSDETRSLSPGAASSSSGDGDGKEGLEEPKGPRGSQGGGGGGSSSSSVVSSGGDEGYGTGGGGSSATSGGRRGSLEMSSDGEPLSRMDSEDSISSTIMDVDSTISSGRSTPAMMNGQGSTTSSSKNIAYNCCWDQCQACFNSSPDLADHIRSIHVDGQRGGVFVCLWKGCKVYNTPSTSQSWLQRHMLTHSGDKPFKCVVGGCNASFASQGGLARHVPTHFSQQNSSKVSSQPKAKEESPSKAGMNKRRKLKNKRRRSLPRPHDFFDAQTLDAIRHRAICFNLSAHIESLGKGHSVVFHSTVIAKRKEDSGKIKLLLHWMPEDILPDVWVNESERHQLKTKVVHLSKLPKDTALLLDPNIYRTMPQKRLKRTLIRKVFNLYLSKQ
Sequence of purified human, His-tagged PRC2 complex (Q09028 whole entry partner): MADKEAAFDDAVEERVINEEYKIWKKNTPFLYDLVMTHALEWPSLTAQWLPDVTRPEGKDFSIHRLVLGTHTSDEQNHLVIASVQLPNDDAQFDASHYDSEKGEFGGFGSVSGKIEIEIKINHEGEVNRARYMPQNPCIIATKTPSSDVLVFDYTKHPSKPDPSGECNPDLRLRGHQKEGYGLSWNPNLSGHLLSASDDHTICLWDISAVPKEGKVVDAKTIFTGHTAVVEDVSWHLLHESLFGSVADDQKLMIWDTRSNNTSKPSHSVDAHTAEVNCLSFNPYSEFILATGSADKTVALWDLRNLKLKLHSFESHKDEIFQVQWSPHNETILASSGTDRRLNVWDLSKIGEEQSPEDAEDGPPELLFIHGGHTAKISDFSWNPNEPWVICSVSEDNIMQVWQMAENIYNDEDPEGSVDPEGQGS

`N#Cc1cn2c(NCc3c(F)ccc4c3CCO4)ncc(-c3cnc(N)c(C(F)(F)F)c3)c2n1` [Example 134, 8-(6-amino-5-(trifluoromethyl)pyridin-3-yl)-5-(((5-fluoro-2,3-dihydrobenzofuran-4-yl)methyl)amino)imidazo[1,2-c]pyrimidine-2-carbonitrile] gave an IC50 of 100 to 500 nM.
`N#Cc1cn2c(NCc3c(F)ccc4c3CCO4)ncc(-c3cnccc3Cl)c2n1` [Example 109, 8-(4-chloropyridin-3-yl)-5-(((5-fluoro-2,3-dihydrobenzofuran-4-yl)methyl)amino)imidazo[1,2-c]pyrimidine-2-carbonitrile] gave an IC50 of less than 100 nM.
Compound `N#Cc1cn2c(NCc3c(F)ccc4c3CCO4)ncc(-c3cnn(C4CCCCO4)c3)c2n1` (stereo not shown) [Example 118, 5-(((5-fluoro-2,3-dihydrobenzofuran-4-yl)methyl)amino)-8-(1-(tetrahydro-2H-pyran-2-yl)-1H-pyrazol-4-yl)imidazo[1,2-c]pyrimidine-2-carbonitrile] has an IC50 of less than 100 nM.
Work on `CCOc1ncccc1-c1cnc(NCc2c(F)ccc3c2CCO3)n2cc(C#N)nc12` [Example 124, 8-(2-ethoxypyridin-3-yl)-5-(((5-fluoro-2,3-dihydrobenzofuran-4-yl)methyl)amino)imidazo[1,2-c]pyrimidine-2-carbonitrile] yielded an IC50 of less than 100 nM.
`CN(C)Cc1c(F)cc(-c2cnc(NCc3c(F)ccc4c3CCO4)n3cc(C#N)nc23)cc1F` [Example 149, 8-(4-((dimethylamino)methyl)-3,5-difluorophenyl)-5-(((5-fluoro-2,3-dihydrobenzofuran-4-yl)methyl)amino)imidazo[1,2-c]pyrimidine-2-carbonitrile] gave an IC50 of 100 to 500 nM.
In the case of `CC(C)Oc1ccc(-c2cnc(NCc3c(F)ccc4c3CCO4)n3cc(C#N)nc23)cn1` [Example 133, 5-(((5-fluoro-2,3-dihydrobenzofuran-4-yl)methyl)amino)-8-(6-isopropoxypyridin-3-yl)imidazo[1,2-c]pyrimidine-2-carbonitrile], the IC50 is reported as less than 100 nM.
With `CN(C)C(=O)c1ccc(-c2cnc(NCc3c(F)ccc4c3CCO4)n3cc(C#N)nc23)c(F)c1F` [Example 42, 4-(2-cyano-5-(((5-fluoro-2,3-dihydrobenzofuran-4-yl)methyl)amino)imidazo[1,2-c]pyrimidin-8-yl)-2,3-difluoro-N,N-dimethylbenzamide] the IC50 was less than 100 nM.
For `Cc1cc(C(=O)N(C)C)c(F)cc1-c1cnc(NCc2c(F)ccc3c2CCO3)n2cc(C#N)nc12` [Example 43, 4-(2-cyano-5-(((5-fluoro-2,3-dihydrobenzofuran-4-yl)methyl)amino)imidazo[1,2-c]pyrimidin-8-yl)-2-fluoro-N,N,5-trimethylbenzamide], the IC50 was less than 100 nM.
In the case of `Cc1ncc(-c2cnc(NCc3c(F)ccc4c3CCO4)n3cc(C#N)nc23)c(C)n1` [Example 71, 8-(2,4-dimethylpyrimidin-5-yl)-5-(((5-fluoro-2,3-dihydrobenzofuran-4-yl)methyl)amino)imidazo[1,2-c]pyrimidine-2-carbonitrile], the IC50 is reported as less than 100 nM.
`N#Cc1cn2c(NCc3c(F)ccc4c3CCO4)ncc(-c3ccc([C@@H]4CCCN4)cc3)c2n1` [Example 219, (S)-5-(((5-fluoro-2,3-dihydrobenzofuran-4-yl)methyl)amino)-8-(4-(pyrrolidin-2-yl)phenyl)imidazo[1,2-c]pyrimidine-2-carbonitrile] showed an IC50 of less than 100 nM.
Work on `Cc1cc(-c2cnc(NCc3c(F)ccc4c3CCCO4)n3cc(C#N)nc23)n(C)n1` [Example 122, 8-(1,3-dimethyl-1H-pyrazol-5-yl)-5-(((6-fluorochroman-5-yl)methyl)amino)imidazo[1,2-c]pyrimidine-2-carbonitrile] yielded an IC50 greater than 500 nM.
`CNC(=O)c1cc(-c2cnc(NCc3c(F)ccc4c3CCO4)n3cc(C#N)nc23)n(C)n1` [Example 208, 5-(2-cyano-5-(((5-fluoro-2,3-dihydrobenzofuran-4-yl)methyl)amino)imidazo[1,2-c]pyrimidin-8-yl)-N,1-dimethyl-1H-pyrazole-3-carboxamide] was tested, and the IC50 was less than 100 nM.
For `N#Cc1cn2c(NCc3c(F)ccc4c3CCO4)ncc(-c3ccc(C(=O)O)cc3)c2n1` [Example 183, 4-(2-cyano-5-(((5-fluoro-2,3-dihydrobenzofuran-4-yl)methyl)amino)imidazo[1,2-c]pyrimidin-8-yl)benzoic acid], the IC50 was less than 100 nM.
Compound `N#Cc1cn2c(NCc3c(F)ccc4c3CCO4)ncc(-c3cnn(CCO)c3)c2n1` [Example 182, 5-(((5-fluoro-2,3-dihydrobenzofuran-4-yl)methyl)amino)-8-(1-(2-hydroxyethyl)-1H-pyrazol-4-yl)imidazo[1,2-c]pyrimidine-2-carbonitrile] has an IC50 of 100 to 500 nM.
`Cc1cc(-c2cnc(NCc3c(F)ccc4sccc34)n3cc(C#N)nc23)n(C)n1` [Example 81, 8-(1,3-dimethyl-1H-pyrazol-5-yl)-5-(((5-fluorobenzo[b]thiophen-4-yl)methyl)amino)imidazo[1,2-c]pyrimidine-2-carbonitrile] gave an IC50 greater than 500 nM.
For `CN1CCc2cc(-c3cnc(NCc4c(F)ccc5c4CCO5)n4cc(C#N)nc34)ccc2C1` [Example 159, 5-(((5-fluoro-2,3-dihydrobenzofuran-4-yl)methyl)amino)-8-(2-methyl-1,2,3,4-tetrahydroisoquinolin-6-yl)imidazo[1,2-c]pyrimidine-2-carbonitrile], the IC50 was 100 to 500 nM.
In the case of `N#Cc1cn2c(NCc3c(F)ccc4c3CCO4)ncc(-c3cnn(C4COC4)c3)c2n1` [Example 106, 5-(((5-fluoro-2,3-dihydrobenzofuran-4-yl)methyl)amino)-8-(1-(oxetan-3-yl)-1H-pyrazol-4-yl)imidazo[1,2-c]pyrimidine-2-carbonitrile], the IC50 is reported as 100 to 500 nM.
`COc1cc(-c2cnc(NCc3c(F)ccc4c3CCO4)n3cc(C#N)nc23)c(OC)cn1` [Example 125, 8-(2,5-dimethoxypyridin-4-yl)-5-(((5-fluoro-2,3-dihydrobenzofuran-4-yl)methyl)amino)imidazo[1,2-c]pyrimidine-2-carbonitrile] was tested, and the IC50 was less than 100 nM.
Compound `CN(C)C(=O)c1cc(Cl)c(-c2cnc(NCc3c(F)ccc4c3CCO4)n3cc(C#N)nc23)cc1F` [Example 35, 5-chloro-4-(2-cyano-5-(((5-fluoro-2,3-dihydrobenzofuran-4-yl)methyl)amino)imidazo[1,2-c]pyrimidin-8-yl)-2-fluoro-N,N-dimethylbenzamide] has an IC50 of less than 100 nM.
`COc1ncc(-c2cnc(NCc3c(F)ccc4c3CCO4)n3cc(C#N)nc23)cc1C#N` [Example 130, 8-(5-cyano-6-methoxypyridin-3-yl)-5-(((5-fluoro-2,3-dihydrobenzofuran-4-yl)methyl)amino)imidazo[1,2-c]pyrimidine-2-carbonitrile] gave an IC50 of 100 to 500 nM.
In the case of `Cc1cncc(-c2cnc(NCc3c(F)ccc4c3CCO4)n3cc(C#N)nc23)c1` [Example 96, 5-(((5-fluoro-2,3-dihydrobenzofuran-4-yl)methyl)amino)-8-(5-methylpyridin-3-yl)imidazo[1,2-c]pyrimidine-2-carbonitrile], the IC50 is reported as less than 100 nM.
Work on `CN(C)CCc1ccc(-c2cnc(NCc3c(F)ccc4c3CCO4)n3cc(C#N)nc23)cc1` [Example 163, 8-(4-(2-(dimethylamino)ethyl)phenyl)-5-(((5-fluoro-2,3-dihydrobenzofuran-4-yl)methyl)amino)imidazo[1,2-c]pyrimidine-2-carbonitrile] yielded an IC50 of less than 100 nM.
For `COC(=O)c1cc(-c2cnc(NCc3c(F)ccc4c3CCO4)n3cc(C#N)nc23)n(C)n1` [Example 169, methyl 5-(2-cyano-5-(((5-fluoro-2,3-dihydrobenzofuran-4-yl)methyl)amino)imidazo[1,2-c]pyrimidin-8-yl)-1-methyl-1H-pyrazole-3-carboxylate], the IC50 was less than 100 nM.
Compound `Cc1ncccc1-c1cnc(NCc2c(F)ccc3c2CCO3)n2cc(C#N)nc12` [Example 105, 5-(((5-fluoro-2,3-dihydrobenzofuran-4-yl)methyl)amino)-8-(2-methylpyridin-3-yl)imidazo[1,2-c]pyrimidine-2-carbonitrile] has an IC50 of less than 100 nM.
For `CN(C)C(=O)c1ccc(-c2cnc(NCc3c(F)ccc4c3CCO4)n3cc(C#N)nc23)c(Cl)c1F` [Example 34, 3-chloro-4-(2-cyano-5-(((5-fluoro-2,3-dihydrobenzofuran-4-yl)methyl)amino)imidazo[1,2-c]pyrimidin-8-yl)-2-fluoro-N,N-dimethylbenzamide], the IC50 was less than 100 nM.
`Cc1ccc(C#N)cc1-c1cnc(NCc2c(F)ccc3c2CCO3)n2cc(C#N)nc12` [Example 177, 8-(5-cyano-2-methylphenyl)-5-(((5-fluoro-2,3-dihydrobenzofuran-4-yl)methyl)amino)imidazo[1,2-c]pyrimidine-2-carbonitrile] gave an IC50 of 100 to 500 nM.
In the case of `Cc1cc(-c2cnc(NCc3c(F)ccc4c3CCO4)n3cc(C#N)nc23)cnn1` [Example 41, 5-(((5-fluoro-2,3-dihydrobenzofuran-4-yl)methyl)amino)-8-(6-methylpyridazin-4-yl)imidazo[1,2-c]pyrimidine-2-carbonitrile], the IC50 is reported as less than 100 nM.
For `CN(C)Cc1ccc(-c2cnc(NCc3c(F)ccc4c3CCO4)n3cc(C#N)nc23)cc1F` [Example 63, 8-(4-((dimethylamino)methyl)-3-fluorophenyl)-5-(((5-fluoro-2,3-dihydrobenzofuran-4-yl)methyl)amino)imidazo[1,2-c]pyrimidine-2-carbonitrile], the IC50 was less than 100 nM.
